The structures appear in SMILES notation.

The source of these data is patent US20240353397A1, “MARKERS OF RESISTANCE AND DISEASE TOLERANCE AND USES THEREOF” (priority 2021, published 2024).

For one experiment, the system named is resistance (R) level. As to the kind of experiment: Connectivity map drug screen: effect of each drug on resistance level. The format is cell-based. To be noted: for effect on resistance: connectivity map drug screen, at least 6 cell lines of different tissues; for Effect on resistance level: t-test, positive/negative sign = increasing/decreasing level following drug treatment. An excerpt: (§1) Using the drug screen of the connectivity map [Aravind Subramanian et al., Cell 171 (6): 1437-1452 (2017)], the effect of each drug on resistance and tolerance was next analyzed in at least 6 cell lines of different tissues. Identification of multiple drugs that display an effect on resistance/tolerance-related diseases allows (i) repurposing of drugs, and (ii) personalized prioritization of drugs. For instance, the screen tested three P glycoprotein inhibitors: zosuquidar, elacridar, and dofequidar. […] Thus, for specific disease in which P glycoprotein inhibitor is required, it is possible to prioritize drugs for each patient based on its baseline combination of resistance and tolerance state.

Experiment [1] has as its system disease tolerance (T) level. As to the kind of experiment: Connectivity map drug screen: effect of each drug on tolerance level. The format is cell-based. The settings on record: for effect on tolerance: connectivity map drug screen, at least 6 cell lines of different tissues, all tissues under study; for Effect on tolerance level: t-test, positive/negative sign = increasing/decreasing level following drug treatment.
Description: as §1

`O=C(C(c1ccccc1)c1ccccc1)N1CCN(CC(O)COc2cccc3ncccc23)CC1` (stereo not shown) [dofequidar]: the effect on resistance result in the experiment with resistance (R) level is “increasing resistance”. Further, the “Effect on resistance level” value with resistance (R) level (tissue: breast) was 0.89 signed −log p-values; with resistance (R) level (tissue: kidney) it was 7.33 signed −log p-values; in the experiment on resistance (R) level (tissue: large intestine), 9.14 signed −log p-values; in the experiment with resistance (R) level (tissue: pancreas) it was 5.84 signed −log p-values; in the experiment with resistance (R) level (tissue: prostate), 3.47 signed −log p-values; in the experiment on resistance (R) level (tissue: skin), 9.17 signed −log p-values. Besides, the effect on tolerance result in experiment [1] is listed as “increased tolerance”. Besides, the “Effect on tolerance level” value was 6.29 signed −log p-values in experiment [1] (tissue: breast); 2.40 signed −log p-values in experiment [1] (tissue: kidney); 6.03 signed −log p-values in experiment [1] (tissue: large intestine); 2.60 signed −log p-values in experiment [1] (tissue: pancreas); 1.54 signed −log p-values in experiment [1] (tissue: prostate); 0.89 signed −log p-values in experiment [1] (tissue: skin).
Turning to `O[C@@H](COc1cccc2ncccc12)CN1CCN([C@@H]2c3ccccc3[C@@H]3[C@H](c4ccccc42)C3(F)F)CC1` [zosuquidar], the “Effect on resistance level” value in the experiment with resistance (R) level (tissue: breast) is reported as 0.13 signed −log p-values; with resistance (R) level (tissue: kidney), −2.54 signed −log p-values; in the experiment with resistance (R) level (tissue: large intestine), −7.65 signed −log p-values; in the experiment with resistance (R) level (tissue: pancreas), −2.82 signed −log p-values; in the experiment with resistance (R) level (tissue: prostate), −2.05 signed −log p-values; in the experiment on resistance (R) level (tissue: skin) it was −6.00 signed −log p-values. The “Effect on tolerance level” value is 11.19 signed −log p-values in experiment [1] (tissue: breast); 5.15 signed −log p-values in experiment [1] (tissue: kidney); 5.89 signed −log p-values in experiment [1] (tissue: large intestine); 5.81 signed −log p-values in experiment [1] (tissue: pancreas); 5.97 signed −log p-values in experiment [1] (tissue: prostate); 2.91 signed −log p-values in experiment [1] (tissue: skin).
With `COc1cc2c(cc1OC)CN(CCc1ccc(NC(=O)c3cccc4c(=O)c5cccc(OC)c5[nH]c34)cc1)CC2` [elacridar], the effect on resistance result in the experiment with resistance (R) level is listed as “increasing resistance”. For the same molecule, the “Effect on resistance level” value was 7.26 signed −log p-values in the experiment with resistance (R) level (tissue: breast); 6.87 signed −log p-values in the experiment on resistance (R) level (tissue: kidney); 10.56 signed −log p-values in the experiment on resistance (R) level (tissue: large intestine); 2.33 signed −log p-values in the experiment with resistance (R) level (tissue: pancreas); 4.37 signed −log p-values in the experiment on resistance (R) level (tissue: prostate); 4.66 signed −log p-values in the experiment on resistance (R) level (tissue: skin). In addition, the effect on tolerance result in experiment [1] is recorded as “increased tolerance”. Besides, the “Effect on tolerance level” value in experiment [1] (tissue: breast) is given as 1.84 signed −log p-values; in experiment [1] (tissue: kidney), 8.48 signed −log p-values; in experiment [1] (tissue: large intestine), 13.47 signed −log p-values; in experiment [1] (tissue: pancreas) it was −0.10 signed −log p-values; in experiment [1] (tissue: prostate), −1.43 signed −log p-values; in experiment [1] (tissue: skin), 2.77 signed −log p-values.
